According to PubChem BioAssay (NCI):
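Grown in 96-well plates, cells were treated for 48 hours with each compound at five concentrations. Insufficient inhibition: endpoint recorded as highest concentration tested. TGI: total growth inhibition.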

Key:
Assay in all cases: NCI tumour cell line growth inhibition, 48 h
SF-295 CNS = test system: SF-295 CNS
SW-620 colon = test system: SW-620 colon
HOP-92 NSCLC = test system: HOP-92 NSCLC
UACC-257 melanoma = test system: UACC-257 melanoma
786-0 renal = test system: 786-0 renal
NCI-H226 lung = test system: NCI-H226 lung
HOP-62 NSCLC = test system: HOP-62 NSCLC
MDA-MB-231 breast = test system: MDA-MB-231 breast
SK-MEL-5 melanoma = test system: SK-MEL-5 melanoma
SF-268 CNS = test system: SF-268 CNS
ACHN renal = test system: ACHN renal
RXF 393 renal = test system: RXF 393 renal
SNB-19 CNS = test system: SNB-19 CNS
RPMI-8226 leukemia = test system: RPMI-8226 leukemia
SR leukemia = test system: SR leukemia
UACC-62 melanoma = test system: UACC-62 melanoma
EKVX NSCLC = test system: EKVX NSCLC
OVCAR-3 ovarian = test system: OVCAR-3 ovarian
HCT-15 colon = test system: HCT-15 colon

Measured: TGI

NNc1ncc2c(n1)-c1ccccc1OC2
> 100 µM: all assays above

CC(=O)N(CCCCNC(=O)C(F)(F)F)CCCNC(=O)C(F)(F)F
> 100 µM: all assays above

N#CCC1(c2ccc(Cl)cc2)NC(=O)c2ccccc21 (configuration not stated)
> 100 µM: all assays above
